Where two headings read alike, the source gives them in different places.
What was measured:
human NPP1 [1] = experiment: NPP1 assay, capillary electrophoresis (CE)-based, ATP as substrate; assay type: biochemical
Procedure: (§1) Concentration-inhibition curves of the test compounds at human NPP1 were performed with ATP as substrate at a final concentration of 400 μM. Several different dilutions of the test compounds were prepared in assay buffer (10 mM N-cyclohexyl-2-aminoethanesulfonic acid (CHES), 2 mM CaCl2, 1 mM MgCl2, pH 9.00) and incubated with 20 ng of human recombinant soluble NPP1 (Val191 - Leu591) expressed in murine myeloma NS0 cells obtained from R&D Systems GmbH (Wiesbaden, Germany, purity 95%, purified by using an N-terminal His-tag). For initial screening and selectivity analysis, NPP1 prepared as previously described ([20]), diluted in assay buffer, was used. The mixture of enzyme, substrate and test compound or buffer without test compound was incubated for 30 min at 37°C, and the reaction was terminated by heating at 90°C for 5 min. Capillary electrophoresis (CE) analysis was carried out to analyze the formation of the product. Data collection and peak area analysis were performed by the P/ACE MDQ software 32 KARAT obtained from Beckman Coulter (Fullerton, CA, USA). A polyacrylamide-coated capillary was used [30 cm (20 cm effective length) × 50 μm (id) × 360 μm (od) purchased from Chromatographie Service GmbH (Langerwehe, Germany)]. Samples were injected electro-kinetically by applying a voltage of -6 kV for 30 s. Finally, analytes were separated by applying a separation voltage of -20 kV, and detected by UV at 260 nm. The IC50 values were determined by nonlinear curve fitting using the GraphPad Prism Software 7.0. The mechanism of inhibition at human NPP1 was determined employing different concentrations of the investigated compounds 6 (at 0, 0.4, 4.0 µM), and 7 (at 0, 0.4 and 40 µM) versus four different substrate concentrations ranging from 50 to 500 μM of ATP. The assay procedure and operation conditions were the same as described above. The experiment was conducted twice, each in triplicates. A Lineweaver-Burk was calculated using GraphPad Prism 7.0 for predicting the inhibition type of the compound.

human NPP1 [2] = molecular target: T1, human NPP1 (Homo sapiens, UniProt P22413); experiment: as above; assay type: biochemical; conditions: for IC50: human NPP1, 400 µM ATP, CE assay
T1 construct: human recombinant soluble NPP1 (Val191 - Leu591) expressed in murine myeloma NS0 cells; His-tag (N); purchased R&D Systems GmbH (Wiesbaden, Germany); host or cells: murine myeloma NS0 cells
T1 sequence (P22413 191-591): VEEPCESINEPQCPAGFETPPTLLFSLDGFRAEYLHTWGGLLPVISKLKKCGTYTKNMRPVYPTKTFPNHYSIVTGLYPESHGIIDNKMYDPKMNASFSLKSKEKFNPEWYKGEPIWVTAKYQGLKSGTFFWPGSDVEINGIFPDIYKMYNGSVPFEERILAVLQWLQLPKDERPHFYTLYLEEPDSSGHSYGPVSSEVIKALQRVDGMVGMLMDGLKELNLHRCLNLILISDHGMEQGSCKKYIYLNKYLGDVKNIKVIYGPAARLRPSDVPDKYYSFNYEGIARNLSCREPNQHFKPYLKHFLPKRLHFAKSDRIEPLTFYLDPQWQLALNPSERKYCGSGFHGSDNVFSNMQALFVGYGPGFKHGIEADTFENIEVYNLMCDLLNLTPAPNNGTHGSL
Procedure: as §1

human CD4+ T cells = experiment: Induced Treg differentiation assay; assay type: cell-based; conditions: U87 cells preincubated with 20 µM ATP plus heparin; supernatant added to CD4+ T cells, day 5 flow cytometry
Procedure: Human CD4^+ T cells were extracted from buffy coats by positive selection using the StraightFrom™ Buffy Coat CD4 MicroBead Kit (Miltenyi Biotec, Bergisch Gladbach, Germany). CD4^+ T cells were stimulated by ImmunoCult™ Human CD3/CD28/CD2 T Cell Activator at day 1. At days 1 and 3, the indicated compounds or U87 cell supernatant, either of untreated or of heparin-treated cells were added to CD4^+ T cells. Cells were harvested at day 5 and were investigated for CD25 and FoxP3 expression. Therefore, cells were washed once with staining buffer (1% BSA, 0.01% NaN3 in PBS). To avoid nonspecific binding, cells were blocked for 15 min with 3% BSA in PBS. Anti-CD25 antibody (PerCP/Cyanine5.5 anti-human CD25 antibody, RRID : AB_2125478, BioLegend Inc, San Diego, CA, USA) was added and the cells were incubated for 30 min in the dark. Subsequently, cells were washed once with staining buffer and fixed in 150 µL of fixation buffer (3% paraformaldehyde (PFA), 0.1% saponin, and 0.5% Tween-20 in Dulbecco's phosphate-buffered saline) for 30 min at 4°C. […] Samples were measured in triplicates using the Guava® easyCyte HT Flow Cytometer (Merck Millipore, Billerica, MA, USA). Compensation and FMO (fluorescence minus one) controls were conducted. […] Data were evaluated using the FlowJo™ v10.5.3 Software (RRID : SCR_008520, BD Life Sciences, Franklin Lakes, NJ, USA) and Graphpad PRISM 8.4.0.

- inhibition type at human NPP1 (human NPP1 [2]; Lineweaver-Burk plots, ATP 50-500 µM): mixed-type
- IC50 (human NPP1 [2]; read-out: IC50 ± SD (µg/ml) (converted)): 3.31 µM
- IC50 (human NPP1 [2]; values of 1 and 2 estimated (1 IU = 0.002 mg; mean 16.5 kDa for heparin-sodium), read-out: IC50 ± SD): 2.94 ± 0.61 µM
Compound: CO[C@H]1O[C@H](COS(=O)(=O)O)[C@@H](O[C@@H]2O[C@@H](C(=O)O)[C@@H](O[C@H]3O[C@H](COS(=O)(=O)O)[C@@H](O[C@@H]4O[C@H](C(=O)O)[C@@H](O[C@H]5O[C@H](COS(=O)(=O)O)[C@@H](O)[C@H](O)[C@H]5NS(=O)(=O)O)[C@H](O)[C@H]4O)[C@H](OS(=O)(=O)O)[C@H]3NS(=O)(=O)O)[C@H](O)[C@H]2OS(=O)(=O)O)[C@H](O)[C@H]1NS(=O)(=O)O [Compound 6, Fondaparinux]
- NPP1 inhibition, selectivity study (human NPP1 [1]; 20 µg/mL (12 µM)): full inhibition
- inhibition of human NPP1, initial screening (human NPP1 [1]; 50 µg/mL (30 µM)): almost complete inhibition
- Treg formation (CD25/FoxP3 positive cells) induced by supernatant of ATP-treated U87 cells (human CD4+ T cells): reduced Treg formation even below that of the control cells

From paper PMC10497752, “Heparins are potent inhibitors of ectonucleotide pyrophosphatase/phospho-diesterase-1 (NPP1) – a promising target for the immunotherapy of cancer” (Frontiers in Immunology, 2023)
